From article PMC12586182 (Frontiers in Oncology, 2025) come the findings set out here.

Holding throughout (experiment): Kinase panel profiling at 1 µmol/L (mobility shift assay, Carna)
What all share (format): biochemical
Details in all cases: 1 µmol/L of BTK inhibitor

For one experiment, the target named is T1, IKKε (Homo sapiens, UniProt Q14164).
T1 construct: purchased Carna Biosciences
T1 sequence (Q14164 1-716): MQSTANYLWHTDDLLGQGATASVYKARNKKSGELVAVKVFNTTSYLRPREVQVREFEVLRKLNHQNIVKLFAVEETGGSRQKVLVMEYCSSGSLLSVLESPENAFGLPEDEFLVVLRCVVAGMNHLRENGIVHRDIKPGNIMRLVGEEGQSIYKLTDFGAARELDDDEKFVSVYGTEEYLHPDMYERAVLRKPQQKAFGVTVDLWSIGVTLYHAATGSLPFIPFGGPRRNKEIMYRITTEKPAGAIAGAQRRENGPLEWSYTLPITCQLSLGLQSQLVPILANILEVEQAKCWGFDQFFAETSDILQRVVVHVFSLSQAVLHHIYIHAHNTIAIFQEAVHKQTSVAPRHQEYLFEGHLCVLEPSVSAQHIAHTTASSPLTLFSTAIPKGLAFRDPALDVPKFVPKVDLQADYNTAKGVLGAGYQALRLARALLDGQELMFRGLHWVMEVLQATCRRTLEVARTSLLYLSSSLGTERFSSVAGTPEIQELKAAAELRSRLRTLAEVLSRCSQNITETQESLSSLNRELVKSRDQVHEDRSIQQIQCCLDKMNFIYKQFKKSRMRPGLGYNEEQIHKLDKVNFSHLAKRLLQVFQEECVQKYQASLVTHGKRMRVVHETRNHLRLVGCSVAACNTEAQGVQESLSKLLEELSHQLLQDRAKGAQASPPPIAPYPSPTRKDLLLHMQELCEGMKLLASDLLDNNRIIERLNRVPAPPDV

The next experiment has as its target T2, NEK7 (Homo sapiens, UniProt Q8TDX7).
T2 construct: purchased Carna Biosciences

In a further experiment the target is T3, CHK1 (Homo sapiens, UniProt O14757).
T3 construct: purchased Carna Biosciences
T3 sequence (O14757 1-476): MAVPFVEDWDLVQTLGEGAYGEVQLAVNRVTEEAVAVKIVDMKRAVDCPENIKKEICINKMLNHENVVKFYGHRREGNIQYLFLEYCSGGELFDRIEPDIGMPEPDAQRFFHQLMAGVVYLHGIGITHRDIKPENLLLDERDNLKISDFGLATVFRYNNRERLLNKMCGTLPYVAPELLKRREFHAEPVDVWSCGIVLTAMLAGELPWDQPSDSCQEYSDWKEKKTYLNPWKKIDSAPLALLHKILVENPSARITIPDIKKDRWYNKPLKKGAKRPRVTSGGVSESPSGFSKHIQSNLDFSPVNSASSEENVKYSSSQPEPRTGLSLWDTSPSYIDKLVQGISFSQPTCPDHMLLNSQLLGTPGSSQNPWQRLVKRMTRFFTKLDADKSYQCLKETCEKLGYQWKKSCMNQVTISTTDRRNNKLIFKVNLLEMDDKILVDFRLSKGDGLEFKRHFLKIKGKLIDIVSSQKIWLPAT

Another experiment concerns the target T4, PDK1 (Homo sapiens, UniProt O15530).
T4 construct: purchased Carna Biosciences
T4 sequence (O15530 1-556): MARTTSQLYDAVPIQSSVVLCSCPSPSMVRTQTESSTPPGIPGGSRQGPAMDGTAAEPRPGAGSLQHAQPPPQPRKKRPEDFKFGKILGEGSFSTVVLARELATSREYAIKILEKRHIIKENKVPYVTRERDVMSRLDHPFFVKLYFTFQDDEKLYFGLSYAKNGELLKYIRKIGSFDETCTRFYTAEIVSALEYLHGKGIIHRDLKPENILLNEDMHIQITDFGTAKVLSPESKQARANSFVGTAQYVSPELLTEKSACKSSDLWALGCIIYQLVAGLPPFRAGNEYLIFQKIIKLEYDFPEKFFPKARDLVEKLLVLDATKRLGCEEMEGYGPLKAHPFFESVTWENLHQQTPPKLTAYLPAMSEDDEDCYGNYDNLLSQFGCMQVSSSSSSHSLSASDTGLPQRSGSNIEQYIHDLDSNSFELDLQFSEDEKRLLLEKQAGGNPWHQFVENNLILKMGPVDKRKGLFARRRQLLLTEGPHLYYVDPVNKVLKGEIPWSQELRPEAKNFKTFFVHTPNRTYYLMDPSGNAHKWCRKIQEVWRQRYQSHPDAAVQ

For the next experiment, the target named is T5, PKD1 (Homo sapiens, UniProt Q15139).
T5 construct: purchased Carna Biosciences
T5 sequence (Q15139 1-912): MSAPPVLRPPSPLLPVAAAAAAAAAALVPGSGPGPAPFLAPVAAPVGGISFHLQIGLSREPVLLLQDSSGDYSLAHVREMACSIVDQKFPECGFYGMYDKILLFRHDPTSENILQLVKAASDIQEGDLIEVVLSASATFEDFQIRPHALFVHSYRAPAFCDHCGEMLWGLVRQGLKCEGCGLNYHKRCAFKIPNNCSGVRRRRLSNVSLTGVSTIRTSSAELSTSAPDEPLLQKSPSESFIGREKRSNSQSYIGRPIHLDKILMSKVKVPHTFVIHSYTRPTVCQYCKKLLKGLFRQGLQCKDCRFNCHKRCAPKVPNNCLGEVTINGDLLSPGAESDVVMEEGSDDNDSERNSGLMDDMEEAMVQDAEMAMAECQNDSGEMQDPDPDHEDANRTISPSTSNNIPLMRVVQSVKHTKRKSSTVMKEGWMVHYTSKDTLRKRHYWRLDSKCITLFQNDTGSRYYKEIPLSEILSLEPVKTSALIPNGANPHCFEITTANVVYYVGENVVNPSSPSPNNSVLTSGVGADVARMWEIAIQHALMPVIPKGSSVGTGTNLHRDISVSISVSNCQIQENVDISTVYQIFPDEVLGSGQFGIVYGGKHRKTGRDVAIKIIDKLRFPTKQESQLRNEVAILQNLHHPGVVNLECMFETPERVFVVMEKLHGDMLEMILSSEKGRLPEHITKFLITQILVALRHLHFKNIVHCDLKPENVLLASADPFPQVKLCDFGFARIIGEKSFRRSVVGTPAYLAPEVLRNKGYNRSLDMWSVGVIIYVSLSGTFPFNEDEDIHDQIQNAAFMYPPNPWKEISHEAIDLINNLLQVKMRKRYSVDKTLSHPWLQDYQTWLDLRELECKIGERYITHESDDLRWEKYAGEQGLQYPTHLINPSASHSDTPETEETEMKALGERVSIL

The target of the next experiment is T6, TNIK (Homo sapiens, UniProt Q9UKE5).
T6 construct: purchased Carna Biosciences
T6 sequence (Q9UKE5 whole entry): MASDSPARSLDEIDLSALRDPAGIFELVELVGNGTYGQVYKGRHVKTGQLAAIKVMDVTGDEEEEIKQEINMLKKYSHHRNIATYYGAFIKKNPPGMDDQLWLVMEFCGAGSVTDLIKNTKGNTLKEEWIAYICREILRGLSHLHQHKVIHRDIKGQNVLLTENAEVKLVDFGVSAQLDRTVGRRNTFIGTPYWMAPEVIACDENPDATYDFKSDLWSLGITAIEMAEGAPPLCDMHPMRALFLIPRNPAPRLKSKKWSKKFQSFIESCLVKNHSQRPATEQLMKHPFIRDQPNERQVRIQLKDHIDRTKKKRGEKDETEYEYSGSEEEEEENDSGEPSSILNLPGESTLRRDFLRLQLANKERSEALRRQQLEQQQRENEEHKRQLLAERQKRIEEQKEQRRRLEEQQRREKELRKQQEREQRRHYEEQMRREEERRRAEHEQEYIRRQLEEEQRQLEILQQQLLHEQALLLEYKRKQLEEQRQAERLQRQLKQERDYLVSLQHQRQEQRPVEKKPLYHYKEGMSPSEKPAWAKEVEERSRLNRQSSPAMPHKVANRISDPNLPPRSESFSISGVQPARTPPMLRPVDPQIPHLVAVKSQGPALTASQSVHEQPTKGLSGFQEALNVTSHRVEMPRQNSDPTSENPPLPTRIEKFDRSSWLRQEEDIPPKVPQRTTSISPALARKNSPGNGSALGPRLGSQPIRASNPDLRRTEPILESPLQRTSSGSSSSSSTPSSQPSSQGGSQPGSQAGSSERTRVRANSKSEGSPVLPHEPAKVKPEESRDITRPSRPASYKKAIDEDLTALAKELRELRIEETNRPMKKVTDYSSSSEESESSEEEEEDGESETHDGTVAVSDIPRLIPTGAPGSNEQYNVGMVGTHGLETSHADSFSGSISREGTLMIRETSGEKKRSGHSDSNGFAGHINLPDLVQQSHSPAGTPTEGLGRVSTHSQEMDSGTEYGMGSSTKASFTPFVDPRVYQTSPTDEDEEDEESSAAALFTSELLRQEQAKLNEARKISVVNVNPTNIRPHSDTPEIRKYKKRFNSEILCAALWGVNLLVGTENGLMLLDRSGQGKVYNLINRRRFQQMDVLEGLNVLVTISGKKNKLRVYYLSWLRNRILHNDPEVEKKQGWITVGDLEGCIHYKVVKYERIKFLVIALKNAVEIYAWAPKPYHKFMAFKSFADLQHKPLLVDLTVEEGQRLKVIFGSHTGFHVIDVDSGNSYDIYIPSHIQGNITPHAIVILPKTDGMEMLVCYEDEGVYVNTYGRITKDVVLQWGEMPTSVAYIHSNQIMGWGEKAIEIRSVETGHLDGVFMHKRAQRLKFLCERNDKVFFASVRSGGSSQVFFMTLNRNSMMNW

The next experiment concerns the target T7, ACK (Homo sapiens, UniProt Q07912).
T7 construct: purchased Carna Biosciences

Another experiment deals with T8, JAK1 (Homo sapiens, UniProt P23458).
T8 construct: purchased Carna Biosciences
T8 sequence (P23458 whole entry): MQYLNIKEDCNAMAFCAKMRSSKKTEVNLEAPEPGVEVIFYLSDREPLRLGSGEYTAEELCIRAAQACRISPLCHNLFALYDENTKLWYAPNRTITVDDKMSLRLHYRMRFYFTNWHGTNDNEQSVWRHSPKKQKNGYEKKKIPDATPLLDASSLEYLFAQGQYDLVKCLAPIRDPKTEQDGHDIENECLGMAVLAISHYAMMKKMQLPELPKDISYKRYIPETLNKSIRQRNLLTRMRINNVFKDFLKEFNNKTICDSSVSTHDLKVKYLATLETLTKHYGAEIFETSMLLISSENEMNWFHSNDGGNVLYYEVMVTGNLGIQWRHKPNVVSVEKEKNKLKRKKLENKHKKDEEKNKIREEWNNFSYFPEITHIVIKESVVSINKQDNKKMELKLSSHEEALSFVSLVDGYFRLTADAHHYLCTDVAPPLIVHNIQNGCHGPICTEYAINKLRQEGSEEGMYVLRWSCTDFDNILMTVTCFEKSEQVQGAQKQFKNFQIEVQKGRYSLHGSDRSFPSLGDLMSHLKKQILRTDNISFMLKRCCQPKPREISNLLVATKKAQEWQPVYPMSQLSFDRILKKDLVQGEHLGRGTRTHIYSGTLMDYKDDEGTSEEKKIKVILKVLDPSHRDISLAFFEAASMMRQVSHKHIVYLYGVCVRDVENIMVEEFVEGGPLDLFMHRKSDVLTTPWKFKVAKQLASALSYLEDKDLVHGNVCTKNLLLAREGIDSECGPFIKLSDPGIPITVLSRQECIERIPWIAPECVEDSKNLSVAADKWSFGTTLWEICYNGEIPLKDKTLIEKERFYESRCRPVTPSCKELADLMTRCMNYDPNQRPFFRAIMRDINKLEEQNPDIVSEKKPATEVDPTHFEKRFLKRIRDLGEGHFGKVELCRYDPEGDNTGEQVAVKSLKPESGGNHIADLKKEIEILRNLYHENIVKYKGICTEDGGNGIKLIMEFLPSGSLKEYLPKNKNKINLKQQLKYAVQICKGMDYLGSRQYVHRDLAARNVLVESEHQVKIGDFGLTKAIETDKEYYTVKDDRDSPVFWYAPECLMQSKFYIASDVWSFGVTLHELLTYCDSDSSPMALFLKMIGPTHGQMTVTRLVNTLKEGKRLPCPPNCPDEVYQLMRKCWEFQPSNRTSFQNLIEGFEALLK

T7 sequence (Q07912 whole entry): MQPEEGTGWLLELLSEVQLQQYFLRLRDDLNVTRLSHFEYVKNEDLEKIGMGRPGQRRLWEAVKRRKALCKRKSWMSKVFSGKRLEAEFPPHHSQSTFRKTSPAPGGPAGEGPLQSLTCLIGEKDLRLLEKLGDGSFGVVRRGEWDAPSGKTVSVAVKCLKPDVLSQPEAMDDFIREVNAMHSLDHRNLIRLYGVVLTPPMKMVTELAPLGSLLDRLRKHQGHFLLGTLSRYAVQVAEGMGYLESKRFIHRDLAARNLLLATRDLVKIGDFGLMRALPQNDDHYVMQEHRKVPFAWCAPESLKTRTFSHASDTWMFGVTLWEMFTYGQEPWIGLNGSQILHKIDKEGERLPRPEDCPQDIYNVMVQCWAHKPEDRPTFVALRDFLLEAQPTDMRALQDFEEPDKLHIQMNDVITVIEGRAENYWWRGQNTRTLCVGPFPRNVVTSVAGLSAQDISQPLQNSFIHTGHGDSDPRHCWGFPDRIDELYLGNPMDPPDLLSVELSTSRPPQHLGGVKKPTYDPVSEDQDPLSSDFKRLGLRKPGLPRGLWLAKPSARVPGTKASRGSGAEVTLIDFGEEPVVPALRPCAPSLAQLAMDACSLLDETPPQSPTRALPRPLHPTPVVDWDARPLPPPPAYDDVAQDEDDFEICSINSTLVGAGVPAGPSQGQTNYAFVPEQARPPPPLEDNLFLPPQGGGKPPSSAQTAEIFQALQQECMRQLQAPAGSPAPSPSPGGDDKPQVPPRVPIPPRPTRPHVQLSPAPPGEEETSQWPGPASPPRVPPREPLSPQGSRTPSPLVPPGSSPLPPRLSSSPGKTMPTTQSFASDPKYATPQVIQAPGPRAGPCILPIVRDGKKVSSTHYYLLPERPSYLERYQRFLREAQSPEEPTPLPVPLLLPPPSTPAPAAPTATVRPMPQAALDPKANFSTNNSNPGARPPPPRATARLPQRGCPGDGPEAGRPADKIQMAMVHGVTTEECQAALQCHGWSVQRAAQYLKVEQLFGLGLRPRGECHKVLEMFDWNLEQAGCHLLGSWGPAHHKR
T2 sequence (Q8TDX7 whole entry): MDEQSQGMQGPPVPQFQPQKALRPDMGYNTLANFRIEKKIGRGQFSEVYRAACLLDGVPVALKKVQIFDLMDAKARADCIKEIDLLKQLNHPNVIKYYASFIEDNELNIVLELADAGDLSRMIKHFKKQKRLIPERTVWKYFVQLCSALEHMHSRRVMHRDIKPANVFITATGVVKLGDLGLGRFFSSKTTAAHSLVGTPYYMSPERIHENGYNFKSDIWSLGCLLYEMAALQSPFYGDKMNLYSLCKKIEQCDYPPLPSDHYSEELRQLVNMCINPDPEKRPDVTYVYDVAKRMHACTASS

For `CC#CC(=O)N1CCC[C@H]1c1nc(-c2ccc(C(=O)Nc3ccccn3)cc2)c2c(N)nccn12` [acalabrutinib], the “Percentage inhibition of kinase enzyme activity” value (“Percentage inhibition” below) at IKKε was 1.46%; on NEK7, -10.68%; on CHK1, -6.98%; on PDK1, -1.47%; at PKD1, -9.48%; on TNIK, -0.81%. Further, the “Percentage inhibition” value on ACK was 14.06%; on JAK1 it was -12.91%.

On to `C=CC(=O)N1CCC[C@@H](n2nc(-c3ccc(Oc4ccccc4)cc3)c3c(N)ncnc32)C1` [ibrutinib], for which the “Percentage inhibition” value at IKKε is -0.70%; on NEK7, 0.69%; on CHK1 it was 10.13%; at PDK1, -2.01%; at PKD1 it was 3.22%; on TNIK, -1.62%. Moreover, the “Percentage inhibition” value at ACK is listed as 72.74%; at JAK1, -9.54%.

On to `O=C(c1ccc(Oc2ccccc2)cc1Cl)c1c[nH]c2ncnc(N[C@@H]3CC[C@@H](CO)OC3)c12` [nemtabrutinib], for which the “Percentage inhibition” value at IKKε amounted to 11.64%; at NEK7, 3.06%; on CHK1 it was 12.30%; on PDK1, 2.54%; on PKD1, 7.45%; on TNIK, 85.96%. Moreover, the “Percentage inhibition” value is on record as 98.62% at ACK and 32.55% on JAK1.

Turning to `COc1ccc(F)cc1C(=O)NCc1ccc(-c2nn([C@@H](C)C(F)(F)F)c(N)c2C(N)=O)cc1` [pirtobrutinib], the “Percentage inhibition” value at IKKε is on record as 5.28%; on NEK7, -2.19%; on CHK1, 8.67%; on PDK1 it was -1.19%; at PKD1, 4.89%; at TNIK, -3.38%. Also, the results for the “Percentage inhibition” value on ACK and at JAK1 were 13.05% and -2.12%, respectively.

Regarding `C=CC(=O)N1CCC([C@@H]2CCNc3c(C(N)=O)c(-c4ccc(Oc5ccccc5)cc4)nn32)CC1` [zanubrutinib], the “Percentage inhibition” value on JAK1 is reported as -0.37%.
